From US9011935B2, “Therapeutic composition and use” (priority 2006, dated 2015)

Experiments:
[1] = system: Methicillin Resistant Staphylococcus Aureus (MRSA); assay: Agar plate antibacterial test (Example 1); settings: liquid added to hollow circle of seeded agar plate, FIG. 1
Protocol: (§1) A 1M solution of potassium nitrite was prepared by diluting 8.51 g of KNO2 in 100 ml of distilled water. 17.612 g of ascorbic acid was diluted in 100 ml of distilled water to form a 1M solution. The three stock solutions were prepared a few minutes prior to the experiments.
(§2) A volume of NaNO2 and an equal volume of KNO2 were mixed with twice the volume of ascorbic acid in a sterile container to produce an “oxides of nitrogen” containing solution. A reaction between the nitrites and the acid occurred instantly. The gas produced was released and 2 ml of the premixed liquid (0.25M) was added to 20 ml of distilled water to give a final concentration of the solution of 1.25 mM.
(§3) Separate samples of NaNO2, KNO2 and ascorbic acid were also prepared as described above.
(§4) An overnight culture of bacteria was prepared by inoculating 20 ml of LB (Luria-Bertani 10 g Bacto-tryptone, +5 g Bacto-yeast extract, +10 g sodium chloride per liter, at pH 7.5) broth with 2 to 3 colonies, and incubating at 37° C. overnight. Broth cultures containing approximately 109 organisms were produced. Bacteria were diluted 1:1000 using phosphate buffer saline (PBS) and 100 μl of diluted broth cultures were seeded on the Brain-Heart agar plates. Prior to seeding bacteria on to the surface of the agar plates a piece of agar (approximately 70 mm in diameter) from the centre of the plates was removed. […]

[2] = system: Candida Albicans (CA); assay: Agar plate antibacterial test (Example 2); settings: liquid added to hollow circle of seeded agar plate, FIG. 2
Protocol: as §1, §2, §3, §4

[3] = system: Pseudomonas Aeruginosa (PS); assay: Agar plate antibacterial test (Example 3); settings: liquid added to hollow circle of seeded agar plate, FIG. 3
Protocol: as §1, §2, §3, §4

[4] = system: Coagulase negative Staphylococcus (CNS); assay: Agar plate antibacterial test (Example 4); settings: liquid added to hollow circle of seeded agar plate, FIG. 4
Protocol: as §1, §2, §3, §4

[5] = system: Methicillin Resistant Staphylococcus Aureus (MRSA); assay: Agar plate exposed to gaseous NO in a closed box (Example 5); type: cell-based; settings: overnight incubation in closed box with NO gas, FIG. 5
Protocol: A Methicillin Resistant Staphylococcus Aureus (MRSA) culture was produced in the same manner as for Examples 1 to 4. The agar plate was placed in a polystyrene box. Gaseous NO was produced by reacting 10 ml 1M ascorbic acid with 5 ml 1M NaNO2 and 5 ml 1M KNO2 in the box and the lid of the box replaced immediately, followed by overnight incubation of the culture.

[6] = pH change on addition of L-ascorbic acid to sodium nitrite (Examples 16 and 17); type: physicochemical; settings: 1M sodium nitrite in normal saline, before acid addition
Protocol: The pH change was measured when L-ascorbic acid was added to sodium nitrite incrementally and as a single addition.
Analytical grade (>99% purity) sodium nitrite (NaNO2) and L-ascorbic acid (C6H8O6) from Sigma-Aldrich, UK were used. Saline (0.9% wv of NaCl) was from Baxter Healthcare-UK was also used.
Normal saline was used as solvent in the preparation of the solutions of sodium nitrite and ascorbic acid. All solutions were prepared at room temperature (22-25° C.) in lots of 25 or 50 ml and were used within 10-20 days. Stock solutions were kept in airtight vessels away from light.
All pH measurements of the solutions were carried out with a Wissenschaftlich-Technische Werkstätten (WTW) pH meter, model pH340i along with a SenTix 20 pH combination electrode incorporating a thermocouple. The electrode was calibrated with freshly prepared buffer calibrating solutions (pH 7.00 and 4.00±0.002). Calibrating solutions were prepared from ALDRICH Tri-check buffer capsules, Aldrich, USA.
The pH of the solutions was measured with the addition of a standard magnetic stir bar operating at 60 rpm. At least 12 ml of solutions were used to ensure that the electrode was completely immersed. 1M solutions of sodium nitrite and ascorbic acid were prepared using normal saline as solvent. In Example 16, 1 ml of acid was added to the nitrite every 10 minutes. […]

O=C1O[C@H]([C@@H](O)CO)C(O)=C1O [A, ascorbic acid]
bacterial colonies on agar plate [1]: large amount of bacteria
bacterial colonies on agar plate [2]: large amount of bacteria
bacterial colonies on agar plate [3]: large amount of bacteria
bacterial colonies on agar plate [4]: large amount of bacteria

[N]=O [Gaseous NO, nitric oxide]
visible bacterial cultures on agar plate [5]: no remaining visible bacterial cultures

O=NO [sodium nitrite solution, sodium nitrite]
initial pH [6]: approximately 7.35
